In this test the test system is BEL-7404 human hepatocellular carcinoma. Kind of test: In vivo anti-tumor efficacy, BEL-7404 xenograft. The settings on record: Liver cancer BEL-7404, nu/nu Balb/c mice, 50 mg/kg oral once per day, n = 2 × 3. On the procedure:
Female (nu/nu) Balb/c athymic mice at 4-6 weeks of age were injected subcutaneously (s.c.) with MDA-MB-231 human breast cancer cells, A549 human non-small cell lung cancer cells, U87-MG human glioblastoma cells, PC-3 human prostate cancer cells, HT-29 human colon cancer, BEL-7404 human hepatocellular carcinoma, or MKN-45 human gastric cancer cells (ATCC, 5×10^6 cells suspended in 100 μl DMEM medium). Treatment was initiated after the tumor mass grown from s.c. implanted tumor cells reached a median volume of 200-400 mm^3. Mice were randomized into groups with three in each group for small-sample efficacy tests such that the median tumor volume is nearly equal among all groups. […] Tumor volumes were assessed at least twice weekly by caliper measurement from the start of treatment. Tumor volume was calculated using the formula ½×L×W^2 (L: length of tumor's long axis, W: length of tumor's short axis). […]
The efficacy of compounds in reducing tumor growth was assessed by the index Tumor Growth Inhibition (TGI). TGI for a given treatment period was calculated using the group mean tumor volumes according to the formula: TGI=100×(VVehicle—group−VTreatment—group)÷VVehicle—group wherein VVehicle—group represents the mean tumor volume for the group treated with vehicle and VTreatment—group represents the mean tumor volume of the group treated with a compound.

Molecules are shown by their SMILES.

Turning to `Cl.O=C(Nc1cc(Cl)ccc1F)Nc1cccc2c1ccn2Cc1ccnc2[nH]ccc12` [Example 56, 1-(2-Fluoro-5-chlorophenyl)-3-[1-(1H-pyrrolo[2,3-b]pyridin-4-ylmethyl)-1H-indol-4-yl]urea hydrochloride], the “Tumor Growth Inhibition (TGI)” value was “A (the TGI is greater or equal to 50%)”.

These data come from patent US8648086B2, “5,6-bicyclic heteroaryl-containing urea compounds as kinase inhibitors” (Ascepion Pharmaceuticals, Inc., priority 2009, dated 2014).
